The source of these data is patent US20260166162A1, “CARBON CHAIN SUBSTANCE FOR REGULATING TRANSMEMBRANE TRANSPORT AND FLUIDITY OF CELL MEMBRANES, AND PREPARATION AND USE THEREOF” (priority 2022, published 2026).

pIC50: −log10 of the molar value. Like-named read-outs stand apart in the source and are kept apart here.

One experiment concerns Pseudomonas aeruginosa. The experiment can be described thus: Bacteriostasis/sterilization test (plate count). The experiment is classed as cell-based.
Another experiment deals with Klebsiella pneumoniae. The experiment is described as follows: Bacteriostasis/sterilization test (plate count). Format: cell-based.
Another experiment deals with SARS-CoV-2 pseudovirus. The experiment is classed as cell-based, SARS-CoV-2 pseudovirus B.1.526.2.
Experiment [1] concerns Methicillin-resistant Staphylococcus aureus. The experiment can be described thus: Bacteriostasis/sterilization test (plate count). The experiment is classed as cell-based.
The subject of another experiment is H7N9 pseudovirus. Format: cell-based, Influenza pseudovirus H7N9-Fluc.
Another experiment has as its system HIV pseudovirus. Format: cell-based, HIV pseudovirus HIV18A-41.
The test system of another experiment is H5N1 pseudovirus. The experiment is classed as cell-based, Influenza pseudovirus H5N1-Fluc.
The next experiment relates to Streptococcus pneumoniae. The experiment can be described thus: Bacteriostasis/sterilization test (plate count). Format: cell-based.
Another experiment concerns Escherichia coli. The experiment is described as follows: Bacteriostasis/sterilization test (plate count). The experiment is classed as cell-based.
The next experiment has as its system Staphylococcus aureus. The experiment is described as follows: Bacteriostasis/sterilization test (plate count). The experiment is classed as cell-based.
In a further experiment the test system is 293T cells. The experiment is described as follows: Cellular phagocytosis of DiD-loaded lipid vesicles (nano-drugs) by 293T cells (Example II-51, Table II-29). Format: cell-based. As to conditions: 293T cells pretreated 4 h, DiD lipid vesicles 2 h, n=3, untreated control 226.46 ± 1.26.
The next experiment has as its system Neocopyovirus. Format: in vivo. Particulars: 1 mM; n=3.
Experiment [2] concerns SARS-CoV-2 pseudovirus (B.1.526.2). Format: cell-based. Particulars: n=3.
The test system of experiment [3] is influenza pseudovirus H7N9-Fluc. The experiment can be described thus: microbe, parasite or virus in culture. Particulars: n=3. The experiment is classed as cell-based.
The test system of another experiment is HIV pseudovirus (18A-41). Format: cell-based. Particulars: 293T cells pretreated 4 h, n=3.

Regarding `CCCCCCCC/C=C\CCCCCCCC(=O)OC(C)C(N)C(=O)O` (stereo not shown), the “Inhibition rate (%)” value (with Pseudomonas aeruginosa (0.035 mM (Table 25)); in the experiment on Klebsiella pneumoniae (0.035 mM (Table 25)); in experiment [1] (0.035 mM (Table 25)); in the experiment on Streptococcus pneumoniae (0.035 mM (Table 25)); in the experiment on Escherichia coli (0.035 mM (Table 25)); in the experiment on Staphylococcus aureus (0.035 mM (Table 25))) was 99% in each case. The “Sterilization rate (%)” value in the experiment on SARS-CoV-2 pseudovirus, with H7N9 pseudovirus, in the experiment on HIV pseudovirus and in the experiment on H5N1 pseudovirus was 99% each time. Besides, the inhibition rate result in the experiment on Staphylococcus aureus (concentration 0.035 mM) is recorded as “greater than 99%”. Moreover, in the experiment on Staphylococcus aureus (read-out: half inhibition concentration), the pIC50 was 5.05.

As to `CCCCCCCC(=O)OCC1OC(O)C(O)C(O)C1O` (stereo not shown), the “Sterilization rate (%)” value in the experiment on Pseudomonas aeruginosa (9 mM, 2 h) is reported as above 99%; with Klebsiella pneumoniae (9 mM, 2 h), above 99%; in experiment [1] (9 mM, 2 h, listed as printed as Methicillin-resistant Streptococcus pneumoniae), above 99%; with Streptococcus pneumoniae (9 mM, 2 h), above 99%; with Escherichia coli (9 mM, 2 h) it was above 99%. Besides, the pIC50 with Staphylococcus aureus (2 h, read-out: half maximal inhibition concentration) is 2.35. Also, the inhibition rate result with Staphylococcus aureus (concentration 72 mM-9 mM, 2 h) is reported as “greater than 99%”.

As for `CCCCCC=CCC=CCCCCCCCC(=O)OCC(N)C(=O)O` (stereo not shown) [Serine-LA], the Fluorescence intensity with 293T cells (2 nM) is 89.36 ± 0.21; with 293T cells (5 nM) it was 46.06 ± 0.02; in the experiment with 293T cells (10 nM), 49.05 ± 0.22; in the experiment with 293T cells (50 nM), 51.34 ± 0.32; in the experiment on 293T cells (100 nM), 59.65 ± 0.54; in the experiment with 293T cells (1 uM) it was 458.20 ± 0.55. Further, the Fluorescence intensity is recorded as 103.58 ± 0.71 with 293T cells (10 uM), 110.15 ± 0.41 in the experiment on 293T cells (50 uM), 14.31 ± 0.13 in the experiment on 293T cells (100 uM) and 2.8 ± 0.56 in the experiment with Neocopyovirus. Moreover, the “Inhibition rate (%)” value in experiment [2] (2 nM) was 60.54 ± 5.59%; in experiment [2] (5 nM), 79.66 ± 5.97%; in [2] (10 nM) it was 78.34 ± 4.87%; in experiment [2] (50 nM), 77.33 ± 4.56%; in experiment [2] (100 nM) it was 73.66 ± 1.33%; in experiment [2] (1 μM), -102.33 ± 4.36%. Further, the “Inhibition rate (%)” value in [2] (10 μM) turned out to be 54.26 ± 0.53%; in experiment [2] (50 μM), 51.36 ± 0.87%; in experiment [2] (100 μM), 93.68 ± 0.73%.

For the compound Glucosamine-erucic acid, the “Inhibition rate (%)” value in experiment [3] (2 nM) was determined as 50.54 ± 3.54%; in [3] (5 nM) it was 39.66 ± 3.66%; in experiment [3] (10 nM) it was 48.04 ± 7.56%; in experiment [3] (50 nM) it was 47.33 ± 4.56%; in [3] (100 nM), 53.86 ± 3.98%; in experiment [3] (1 μM), 12.07 ± 2.65%. Besides, the “Inhibition rate (%)” value in experiment [3] (10 μM) is reported as 54.05 ± 5.05%; in [3] (50 μM), 91.44 ± 4.48%; in experiment [3] (100 μM), 99.78 ± 5.64%. In the experiment on Neocopyovirus, the Fluorescence intensity is 6.8 ± 0.49.

Regarding Threonine-tetracosanoic acid, the “Inhibition rate (%)” value with HIV pseudovirus (18A-41) (2 nM) is on record as 81.01 ± 5.26%; in the experiment on HIV pseudovirus (18A-41) (5 nM) it was 92.25 ± 5.03%; with HIV pseudovirus (18A-41) (10 nM), 94.06 ± 6.46%; in the experiment with HIV pseudovirus (18A-41) (50 nM), 99.01 ± 6.33%; in the experiment on HIV pseudovirus (18A-41) (100 nM), 98.64 ± 5.77%; in the experiment with HIV pseudovirus (18A-41) (1 μM), -42.03 ± 3.83%. In addition, the “Inhibition rate (%)” value is -64.26 ± 6.54% in the experiment with HIV pseudovirus (18A-41) (10 μM); 81.96 ± 6.75% in the experiment with HIV pseudovirus (18A-41) (50 μM); 83.84 ± 3.84% in the experiment on HIV pseudovirus (18A-41) (100 μM, negative value = promotes infection). Besides, the Fluorescence intensity in the experiment on Neocopyovirus was found to be 2.9 ± 0.11.
